Measured values: US20240174690A1, “ANNULATED 2-AMINO-3-CYANO THIOPHENES AND DERIVATIVES FOR THE TREATMENT OF CANCER” (BOEHRINGER INGELHEIM INTERNATIONAL GMBH, priority 2021, published 2024)
Values after ≈ are worked out from the molar mass of the structure shown. Where two headings read alike, the source gives them in different places.

Experiments:
[1] = tested on: SAS cells; assay: SAS CTG proliferation assay (120 h) (HNSCC, wt amplified); format: cell-based
How it was run: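 SAS cells plated at 300 per well in DMEM:F12 with 10% FCS and left overnight, then given compounds acoustically. After 120 h exposure, viability read by CellTiter-Glo as percent of DMSO control. IC50 from four-parameter non-linear regression.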

[2] = tested on: KRAS G12V-dependent Ba/F3 cells; assay: Ba/F3 proliferation assay, KRAS G12V; format: cell-based; conditions: Mus musculus, BaF3, 72 h, AlamarBlue;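 note: proliferation IC50 in KRAS G12V-dependent Ba/F3 cells read by AlamarBlue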
How it was run: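 Ba/F3 cells were retrovirally transduced with KRAS G12 mutant vectors, puromycin-selected (1 μg/mL) and grown without IL-3 to make them KRAS-dependent. Compounds were tested in technical duplicates, viability was read by AlamarBlue fluorescence, and values came from curve fitting.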

[3] = tested on: AsPC-1 cells; assay: AsPC-1 CTG proliferation assay (120 h) (pancreatic cancer, G12D); format: cell-based; conditions: Homo sapiens, ASPC1
How it was run: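 AsPC-1 cells (KRAS G12D), 2000/well in RPMI with 10% FCS, seeded overnight, then treated with compound for 120 h at 37 °C. Viability by CellTiter-Glo luminescence as percent of DMSO control. IC50 from a four-parameter non-linear fit.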

[4] = tested on: LOVO cells; assay: LOVO CTG proliferation assay (120 h) (CRC, G13D); format: cell-based; conditions: Homo sapiens, CTG 120 h
How it was run: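 LOVO cells, 1000 per well in DMEM + 10% FCS, were plated overnight and then dosed with compound from DMSO stock. After 120 h at 37 °C, viability was read by CellTiter-Glo luminescence as a percentage of DMSO controls. IC50 was derived by four-parameter non-linear regression.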

[5] = Solubility measurement (DMSO solution method), McIlvaine buffer pH 4.5 or 6.8; format: physicochemical; conditions: aqueous buffer, kinetic from dmso stock, DMSO stock diluted to 250 μM, 24 h shaking at ambient temperature
How it was run: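 DMSO stock diluted into McIlvaine buffer, pH 4.5 or 6.8, to 250 µM final, shaken 24 h at ambient temperature. Precipitate removed by filtration; filtrate quantified by LC-UV against a fully dissolved reference in acetonitrile/water 1:1.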

[6] = McIlvaine buffer pH 4.5, read-out: solubility pH 4.5
[7] = McIlvaine buffer pH 6.8, read-out: solubility pH 6.8

IC50 [2] [nM]	IC50 [3] [nM]	IC50 [4] [nM]	solubility at 24 h [5, 6] [µg/mL]	solubility at 24 h [5, 7] [µg/mL]	SMILES	IC50 [1] [nM]
971	1600	472			C[C@@H]1CN(c2cc(O[C@@H](C)[C@@H]3CCCN3C)nc(-c3noc4c3CCC[C@@]43CCCc4sc(N)c(C#N)c43)n2)CCN1 [II-161]	1580
387	82	310	> 134	< 1	[2H]C([2H])([2H])N1C[C@H](F)C[C@H]1[C@H](C)Oc1cc(N2CCN(C([2H])([2H])[2H])C3(CC3)C2)nc(-c2noc3c2CCC[C@@]32CCCc3sc(N)c(C#N)c32)n1 [II-207]	1080
185	11	107	> 153	3 (≈ 4.71 µM)	C[C@H](Oc1nc(-c2noc3c2CCC[C@@]32CCCc3sc(N)c(C#N)c32)nc(N2CCNC3(CC3)C2)c1F)[C@@H]1C[C@@H](F)CN1C [II-155]	471
3	446	34	> 163	9 (≈ 12.9 µM)	CO[C@H]1CCN(C)[C@@H]1[C@H](C)Oc1cc(-n2ccc(C(=O)N(C)C3COC3)n2)nc(-c2noc3c2CCC[C@@]32CCCc3sc(N)c(C#N)c32)n1 [II-199]	17
	21600	5490	82 (≈ 148 µM)	8 (≈ 14.4 µM)	C[C@H]1CNCCCN1c1cc(-c2ccn(C)n2)nc(-c2noc3c2CCC[C@@]32CCCc3sc(N)c(C#N)c32)n1 [II-140]	128
	170	35	16 (≈ 23.1 µM)	< 1	C[C@H](Oc1cc(-n2ccc(-c3cn([C@H]4CCOC4)nn3)n2)nc(-c2noc3c2CCC[C@@]32CCCc3sc(N)c(C#N)c32)n1)[C@@H]1CCCN1C [II-212]	19
9			> 118	82 (≈ 143 µM)	C[C@H](Oc1cc(-c2cn(C)nn2)nc(-c2onc3c2CCC[C@@]32CCCc3sc(N)c(C#N)c32)n1)[C@@H]1CCCN1C [I-16]	77
6	1310	22			C[C@H](Oc1cc(-n2cc3ccn([C@@H](C)c4ccccn4)c(=O)c3n2)nc(-c2noc3c2CCC[C@@]32CCCc3sc(N)c(C#N)c32)n1)[C@@H]1CCCN1C [II-205]	20
	425	13	73 (≈ 104 µM)	12 (≈ 17 µM)	C[C@H](NC(=O)c1ccn(-c2cc(O[C@@H](C)[C@@H]3CCCN3C)nc(-c3noc4c3CCC[C@@]43CCCc4sc(N)c(C#N)c43)n2)n1)c1ccccn1 [II-191]	10
1360	3520		> 121	> 151	CNC1CCN(c2cc(O[C@@H](C)[C@@H]3CCCN3C)nc(-c3noc4c3CCC[C@@]43CCCc4sc(N)c(C#N)c43)n2)CC1 [II-214]	
23	9850	730			CO[C@@H]1C[C@@H]([C@H](C)Oc2cc(-c3cnn(C)n3)nc(-c3onc4c3CCC[C@@]43CCCc4sc(N)c(C#N)c43)n2)N(C)C1 [I-17]	241
			1 (≈ 1.84 µM)	< 1	C[C@H]1CNCCCN1c1nc(-c2onc3c2CCC[C@@]32CCCc3sc(N)c(C#N)c32)cc(C(F)(F)F)n1 [I-15]	
	7100	2840	105 (≈ 178 µM)	< 1	C[C@H](Oc1cc(-c2ccn(C)n2)nc(-c2noc3c2CCC[C@@]32CCCc3sc(N)c(C#N)c32)n1)[C@@H]1C[C@H](F)CN1C [II-144]	302
19	3520	225			C[C@H](Oc1cc(-n2nccc2-c2ccncc2)nc(-c2noc3c2CCC[C@@]32CCCc3sc(N)c(C#N)c32)n1)[C@@H]1CCCN1C [II-131]	623

SMILES	IC50 [2] [nM]	IC50 [3] [nM]	IC50 [4] [nM]	solubility at 24 h [5, 6] [µg/mL]	solubility at 24 h [5, 7] [µg/mL]	IC50 [1] [nM]
C[C@H](Oc1cc(N2CC3COCC(C2)N3)nc(-c2noc3c2CCC[C@@]32CCCc3sc(N)c(C#N)c32)n1)[C@@H]1CCCN1C [II-160]	2010	3220	7610			821
